Consider nine substances from paper PMC9260506, “Identification of Highly Cross-Reactive Mimotopes for a Public T Cell Response in Murine Melanoma” (Frontiers in Immunology, 2022).

The target in series [1] is p15E peptide presented by H-2K^b, refolded pMHC (mouse | human | murine leukemia virus). As to the kind of experiment: SPR.
For series [2], the target named is 7PPG2 TCR, recombinant soluble (mouse) (UniProt P01849). As to the kind of experiment: SPR. The settings on record: peptide-MHC.
The test system of series [3] is CD8^+ T cells. Nature of the series: Intracellular cytokine staining of peripheral blood after vaccination. The series is classed as in vivo, C57BL/6 mice. Conditions: for CD8^+ T cell reactivity to p15E stimulation (ICS): Figure 7C. From the text:
MSA and TTR long peptide fusions were produced in house by the Wittrup lab as previously described ([23]). Long peptide-amphiphile fusion vaccines were obtained from Northwestern University Peptide Synthesis Core (p15E and mimotopes) or produced in house by the Irvine lab as previously described (OVA amph) ([16], [22]). Lipo-CpG was produced in house by the Irvine lab as previously described ([16], [22]). […] Mice were primed and then boosted at 2 and 4 weeks following prime (n=5 per group).
One week following each vaccine boost, blood samples were drawn retro-orbitally from each mouse. 50-80 μL was used per well for stimulation with peptide, and excess blood from each group was pooled and used for a positive and negative control well per group. Red blood cells were lysed with ACK lysis buffer (Thermo), and then cells were washed once with FACS buffer. In 100 μL/well RPMI complete media, sample wells were stimulated with 10 μg/mL peptide (p15E, 7PPG2-mim6, or 7PPG4-mim2), and positive control wells were stimulated with 10 ng/mL PMA and 10 μg/mL ionomycin. Cells were stimulated for two hours before 1 uL/well brefeldin A (BD GolgiPlug) was added, and then cells were incubated for an additional four hours. Cells were washed twice with cold PBS and then stained with Zombie Aqua 1:1000 and Fc block 1:100 in 100 μL/well PBS for 15 minutes at room temperature. Cells were then stained with CD8 APC 1:100 in 100 μL/well FACS buffer for 20 minutes at room temperature. Cells were fixed and permeabilized using 100 μL/well of CytoFix/CytoPerm solution (BD) for 20 minutes at 4°C. Following two washes with Perm/Wash buffer (BD), cells were stained with IFN-γ PE and TNF-α AF488 1:75 each in 50 μL/well Perm/Wash buffer for 30 minutes at 4°C. Following two washes with FACS buffer, samples were run on an LSR II (BD) or Cytoflex (Beckman Coulter) and data analyzed in FlowJo v10. Outliers were identified using the ROUT method with Q = 1% (GraphPad Prism 9).

Series [4] relates to 7PPG4-transduced 58^-/- T cells. Nature of the series: T cell activation, peptide-loaded DC2.4 co-culture, IL-2 ELISA (7PPG4). The class given is cell-based, murine. Conditions: DC2.4 cells loaded with various peptide concentrations 2-3 h, 24 h co-culture. How it is done:
(§1) T cell line generation: For creation of T cell lines, TCR alpha chain was linked to TCR beta chain by a P2A sequence, followed by EGFP fluorescent protein sequence, in the MP71 retroviral vector. 80% confluent HEK293-T cells were transfected with 2 μg of TCR plasmid and 1 μg pCL-Eco helper plasmid with 6 μg (3× DNA mass) PEI (Santa Cruz Biotech) to create retrovirus. 2 days later, the supernatant was then used to transduce CD8^+ 58^-/^- cells with 0.8 μg/mL polybrene (Santa Cruz Biotech). Cells were spinfected at 1000×g and 32°C for 1.5 hours. 2 days later, transduction was assessed by expression of EGFP and by staining with an antibody against murine TCR β chain. If necessary, cells were sorted on EGFP on a FACSAria (BD) to obtain a >95% transduced population.
(§2) DC co-culture: 25,000 DC2.4 cells per well were incubated with various concentrations of peptide in 100 μL RPMI complete media for 2-3 hours before the addition of T cells. 25,000 T cells per well were added in 100 μL RPMI complete media in 96 well plates.
(§3) After 24 hours, plates were spun down at 500×g for 5 minutes, and 2×100 μL samples of supernatant were saved and frozen at -80°C. T cell activation was assessed using mouse IL-2 ELISA kits (Invitrogen), with samples diluted 1:2 - 1:20 for comparison to the standard curve. Absorbance values were measured with a Tecan Infinite m200 Pro plate reader.

Series [5] concerns 7PPG4 TCR. Nature of the series: Steady-state surface plasmon resonance, pMHC on immobilized 7PPG4 TCR. The class given is binding, mouse. Conditions: Figure 5C. An excerpt: Recombinant soluble TCRs used for yeast library selections and surface plasmon resonance experiments were produced using a baculovirus expression system in Hi5 insect cells. TCR alpha chain extracellular domain sequences were cloned into pAcGP67a vector containing a 3C protease site ([…]) followed by an acidic leucine zipper, AviTag biotinylation site ([…]), and poly-histidine tag (6×His). TCR beta chain extracellular domain sequences were cloned into pAcGP67a vector containing a 3C site followed by a basic leucine zipper and poly-histidine tag. 2 μg of each plasmid was transfected into SF9 insect cells with BestBac 2.0 linearized baculovirus DNA (Expression Systems) using Cellfectin II reagent (Invitrogen). SF9s were then infected with 1:1000 primary transfection supernatant to amplify the virus. Titration of alpha and beta chain viruses was performed to identify the optimal ratio of the two viruses for heterodimer formation. Protein was then produced by large scale infection of Hi5 cells as previously described ([10]). Briefly, secreted protein was purified using HisPur Ni-NTA resin (Thermo) for immobilized metal affinity chromatography (IMAC) and biotinylated overnight at 4°C using biotin (Avidity), ATP, and BirA ligase. […] Biotinylation efficiency was assessed by adding streptavidin (ThermoFisher) to ~2 ug of protein and running an SDS-PAGE gel. […]

Series [6] concerns B16F10 melanoma cells. As to the kind of experiment: Prophylactic vaccination and B16F10 tumor challenge. The series is classed as in vivo, C57BL/6 mice. The protocol: (§4) MSA and TTR long peptide fusions were produced in house by the Wittrup lab as previously described ([23]). Long peptide-amphiphile fusion vaccines were obtained from Northwestern University Peptide Synthesis Core (p15E and mimotopes) or produced in house by the Irvine lab as previously described (OVA amph) ([16], [22]). Lipo-CpG was produced in house by the Irvine lab as previously described ([16], [22]). 5 nmol of vaccine and 1.24 nmol of lipo-CpG per injection were used in a volume of 100 μL PBS, sterile filtered, and injected subcutaneously at the tail base, 50 μL per side, using 31G insulin syringes. Mice were primed and then boosted at 2 and 4 weeks following prime (n=5 per group).
Two weeks after the second vaccine boost, 10^5 B16F10 cells in 100 μL PBS were injected subcutaneously on the right flank using 29G insulin syringes. Tumor areas were calculated by multiplying length and width taken by caliper measurement every other day beginning three days post-tumor inoculation. Mice were euthanized when tumor area exceeded 100 mm^2.

In series [7] the test system is 7PPG2-transduced 58^-/- T cells. Nature of the series: T cell activation, peptide-loaded DC2.4 co-culture, IL-2 ELISA (7PPG2). The settings on record: DC2.4 cells loaded with various peptide concentrations 2-3 h, 24 h co-culture. The series is classed as cell-based, murine. The protocol:
as §1, §2, §3

For series [8], the system named is p15E-pulsed splenocytes. As to the kind of experiment: In vivo killing assay of peptide-pulsed donor splenocytes. The arrangement: species or system C57BL/6 mice. The settings on record: day 36 spleens, 24 h after i.v. injection of about 1:1 CFSE-dyed p15E-pulsed and violet-dyed OVA-pulsed splenocytes; amphiphile vaccines days 0, 14, 28; N=3 mice/group. How it is done: as §4
Experimental mice were vaccinated as described above. A separate group of age-matched female C57BL/6 donor mice were euthanized and spleens removed. In a sterile hood, single cell suspensions were created by mashing spleens through 70 μm mesh filters. Red blood cells were lysed using ACK lysis buffer (Thermo), and cells were washed twice with PBS. […] 24 hours later, experimental mice were euthanized and splenocytes analyzed to compare ratios of CFSE-dyed to Violet-dyed cells. Samples were run on a Cytoflex and data analyzed in FlowJo v10.

pKd: −log10 of the molar value.

“7ELG1 TCR, recombinant soluble (from UniProt P01849)” had a pKd in series [1] of 4.41.

In series [1], “7PPG2 TCR, recombinant soluble (from UniProt P01849)” showed a pKd of 4.64.

Take “7PPG3 TCR, recombinant soluble (from UniProt P01849)”: the negative logarithm of the Kd (pKd) in series [1] is 4.70.

In the case of “7PPG4-mim2 mimotope () presented by H-2K^b, refolded pMHC (from UniProt P61769 21-119)”, the pKd in series [2] is 4.38.

On to “KSPWFITL [7PPG4-mim2, p15E mimotope identified from yeast display pMHC library selection with 7PPG4 TCR]”, for which, in series [3] (amphiphile vaccine + lipo-CpG, days 21 and 35, Supplementary Figure 7A), the “CD8^+ T cell reactivity to 7PPG2-mim6 stimulation (ICS)” value is reported as “some cross reactivity to 7PPG2-mim6 stimulation”. Further, the “CD8^+ T cells reacting to 7PPG4-mim2 stimulation (ICS)” value in series [3] (day 21, 5 nmol amphiphile vaccine + lipo-CpG, Supplementary Figure 7B, N=5) was 40 % of CD8^+ T cells. Besides, the “CD8^+ T cell reactivity to p15E stimulation (ICS)” value in series [3] (day 35, 5 nmol amphiphile vaccine + 1.24 nmol lipo-CpG, boosts days 14 and 28, N=5) was 40%. Also, the “T cell activation (IL-2 secretion)” value in series [4] was “much more potently than p15E”. Moreover, in series [5] (SPR, 5 μM compared to 26 μM), the “affinity for 7PPG4 relative to p15E” value is “five-fold higher affinity”. Moreover, the Autoreactivity in vivo entry in series [6] (all in vivo studies with the amphiphile vaccine) was “did not show evidence of deleterious autoreactivity”.

As to “KSPWFTTL [p15E, previously identified MLVenv peptide presented by the class I MHC H-2K^b]”, the “T cell activation (IL-2 secretion)” value in series [7] and in series [4] was “activated in a dose-dependent manner” each time. The “CD8^+ T cell reactivity to p15E stimulation (ICS)” value in series [3] (days 21 and 35, 5 nmol amphiphile vaccine + lipo-CpG, compared with adjuvant-only control) was “did not show any significant reactivity compared to the control group”. The “Fraction of p15E-pulsed cells remaining” value in series [8] is “little difference in fraction of p15E-pulsed cells compared to the control group”. Moreover, the “Survival after tumor challenge” value in series [6] (first experiment, 1×10^5 B16F10 cells six weeks after prime, amphiphile vaccines, euthanized at tumor area >100 mm^2, N=5, Figure 7F) is given as “identical survival curves”.

In the case of SIINFEKL [OVA], the “CD8^+ T cell reactivity to OVA (ICS)” value in series [3] (killing-assay study, day 35, OVA amphiphile vaccine day 0, boosts days 14 and 28, N=3 mice/group, Supplementary Figure 6B) is given as 20%. Further, the “Fraction of p15E-pulsed cells remaining” value in series [8] was “high fraction of p15E-pulsed cells remaining”.

“SIYRYYGL [2C TCR cognate antigen, control peptide]”: the “T cell activation (IL-2 secretion)” value in series [7] and in series [4] was “no activation” in each case.

Regarding “VSPWFNTL [7PPG2-mim6, p15E mimotope identified from yeast display pMHC library selection with 7PPG2 TCR]”, the “T cell activation (IL-2 secretion)” value in series [7] is listed as “much more potently than p15E”. For the same substance, in series [3] (amphiphile vaccine + lipo-CpG, days 21 and 35, Supplementary Figure 7B), the “CD8^+ T cell reactivity to 7PPG4-mim2 stimulation (ICS)” value is recorded as “minimal reactivity to 7PPG4-mim2”. The substance also gave a negative-log Kd (pKd) in series [5] (mimotope or p15E peptide displayed by H-2K^b as analyte, immobilized TCR, 25°C, steady state) of less than 4.00.
